Test results from publication PMC9321663, “The DevTox Germ Layer Reporter Platform: An Assay Adaptation of the Human Pluripotent Stem Cell Test” (Toxics, 2022).
Like-named read-outs stand apart in the source and are kept apart here.

What was measured:
[1] = test system: SOX17 (endoderm marker) in RUES2-GLR cells; experiment: DevTox GLR-Endo assay: increase in percent SOX17-positive cells (AEID 3093, Sox17_up); assay type: cell-based, human; settings: for Emax: Homo sapiens
Protocol: (§1) The total test chemical incubation period was 48 h.
(§2) (Supplementary Materials).

[2] = test system: SOX2 (ectoderm and pluripotency marker) in RUES2-GLR cells; experiment: DevTox GLR-Endo assay: increase in percent SOX2-positive cells (AEID 3095, Sox2_up); settings: for AC50 / Emax: Homo sapiens; for AC50: read-out: ga (winning model); for Emax: read-out: tp (winning model);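 for all read-outs here: cells exposed to test chemicals for 48 h in total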
Protocol: RUES2-GLR cells were seeded 24 h prior to differentiation initiation into vitronectin-coated 384-well CellCarrier Ultra plates (10.6 mm^2/well) (Perkin Elmer, Waltham, MA, USA). Vitronectin (0.5 µg/cm^2)-coated plates were prepared and stored at 4 °C, wrapped in parafilm, for less than seven days and incubated at room temperature for one hour prior to cell seeding. […] Cells were dispensed into 20 µL coating solution using a Certus FLEX Micro Dispenser (Fritz Gyger, Gwatt, Switzerland) with a 0.45 µm valve to a final volume of 100 µL and density of 2.8 × 10^3 cells per well.
Following a 24 h post-seeding incubation period (Time = 0 h) (Figure 3A), directed endoderm differentiation was initiated with the PSC Definitive Endoderm Induction kit (Gibco, Waltham, MA, USA). […] A target dilution series (0.002–200 µM) was generated by dispensing variable nanoliter volumes of test chemical and backfilling with a complementary volume of DMSO using Echo Cherry Pick software (v.1.6.2). Wells were backfilled with 50 µL of induction medium using a Certus FLEX Micro Dispenser with 0.45 µm valves. Test compound treatment plates were mixed on a Multi-Microplate Genie mixer at 700 rpm for 10 min and subsequently incubated for two hours in a humidified atmosphere at 37 °C with 5% CO2. Each chemical treatment (0 h–Medium A; 24 h–Medium B) were prepared the day of treatment. At 0 h, cell culture medium was aspirated from the assay plate at a rate of 1 µL/s and 40 µL of Medium A ± test chemical applied using a CyBio FeliX automated liquid handler (Analytik Jena, Jena, Germany). At 24 h, conditioned cell culture medium was aspirated and 40 µL of Medium B ± test chemical was applied. At 48 h, cells were prepared for high-content image acquisition by fixation and nuclear staining. The total test chemical incubation period was 48 h. For fixation, a 4% paraformaldehyde (PFA) solution was achieved by adding 40 µL of 8% PFA directly to cell culture medium using a CyBio FeliX liquid handler. […] Following an additional 30 min incubation period at room temperature, staining solution was aspirated, 50 µL of DPBS was added, and plate sealed with MicroAmp Optical Adhesive Film (Applied Biosystems, Waltham, MA, USA).
Images were acquired within 12 h post-fixation using an Opera Phenix High-Content Screening System (Perkin Elmer, Waltham, MA, USA). […] Cell identification and mean biomarker fluorescent intensities were calculated using Harmony image analysis software (Perkin Elmer, Waltham, MA, USA). Cell nuclei were identified using the object classifying algorithm C of the software with border objects excluded using the “Remove Border Objects” feature. Mean cell biomarker intensity statistics were gathered from each object and exported for further analysis using a custom script in Python version 3.7.4 [61] […] For each plate, pluripotent-negative control wells were used to establish baseline intensity values and a cutoff threshold for determining SOX17 and BRA biomarker-positive cells. Endoderm differentiated positive control wells were used to establish baseline intensity values and a cutoff threshold for SOX2-positive cells. Cells with a mean intensity five times the baseline median absolute deviation (5*bmad) above the median cell intensity for plate-based control population technical replicates were considered positive. Well-based cell counts, reflected by the sum of total counted objects from all fields, were used to calculate the percent responders for each respective biomarker and evaluate cytotoxicity. Well-level results were exported for data modeling in the ToxCast Pipeline.
The ToxCast Pipeline R package (tcpl v.2.0.2) was used to normalize, fit, and qualify concentration-response screening data [63].

[3] = cited from earlier work; for Development Toxicant Classification: Table S2; for Classification: developmental toxicant classification (Teratogen / Non-Teratogen) of reference and training chemicals, ref DOI per chemical: 10.1093/toxsci/kft239, 10.1093/toxsci/kfaa014, 10.1177/026119290203000204, 10.1038/s41598-020-59542-x; for DT Class.: developmental toxicant classification, chemicals common with quickPredict
[4] = test system: RUES2-GLR cells; experiment: DevTox GLR-Endo assay: decrease in total cell count, cytotoxicity (AEID 3098, CellCount_dn); settings: for Emax: Homo sapiens, read-out: Cell Count % Max Inhibition
Protocol: as §1
(§3) Assay plate controls included non-differentiated pluripotent cells maintained in complete Essential 8 Flex medium (baseline control), endoderm differentiated cells (differentiation control), endoderm differentiated cells treated with DMSO (0.2%) (solvent control), and TGF-ß receptor inhibitor SB431542 (1 µM)-treated cells (developmental toxicant-positive control) (Figure S3). All experiments were completed with a minimum of four biological replicates (n = 4).
as §2

[5] = test system: SOX17 (endoderm marker) in RUES2-GLR cells; experiment: DevTox GLR-Endo assay: decrease in percent SOX17-positive cells (AEID 3094, Sox17_dn); settings: for Emax / AC50: Homo sapiens; for DevTox-GLR Endo ACC: activity concentration at cutoff, SOX17-positive cells
Protocol: as §1, §3, §2

[6] = test system: BRA (mesoderm marker) in RUES2-GLR cells; experiment: DevTox GLR-Endo assay: increase in percent BRA-positive cells (AEID 3096, Bra_up); assay type: cell-based, human; design: tp (winning model): unit not given here; settings: for ga (winning model): tcpl plot AEID3096, gain parameter of winning curve fit (log concentration, µM axis); for ga (winning model) / tp (winning model): hit calls only; for tp (winning model): tcpl plot AEID3096, top of winning curve fit
Protocol: as §1, §2

[7] = tcpl plot AEID3093, maximum mean response, read-out: MAX_MEAN
[8] = tcpl plot AEID3093, maximum median response, read-out: MAX_MED
[9] = tcpl plot AEID3095, maximum mean response
[10] = tcpl plot AEID3095, maximum median response
[11] = DevTox GLR-Endo prediction against developmental toxicant classification
[12] = read-out: DevTox % Max Inhibition
[13] = read-out: maximum observed effect level class (% max inhibition)
[14] = Table S2, SOX17-positive cells, cutoff 3*bmad
[15] = Table S2, percent SOX17-positive cells, 48 h exposure
[16] = tcpl plot AEID3096, maximum mean response
[17] = tcpl plot AEID3096, maximum median response
[18] = read-out: ga (winning model), tcpl plot AEID3094, gain parameter of winning curve fit (log concentration, µM axis), hit calls only (converted)
[19] = tcpl plot AEID3093, maximum mean response
[20] = tcpl plot AEID3093, maximum median response
[21] = Table S2, cell count relative to DMSO
[22] = Table S2, percent SOX17-positive cells relative to DMSO
[23] = tcpl plot AEID3094, maximum mean response
[24] = tcpl plot AEID3094, maximum median response

Compound	Emax [1, 7]	Emax [1, 8]	HIT−CALL ([1]; tcpl plot AEID3093, COFF 20.3)	MAX_MEAN [2, 9]	MAX_MED [2, 10]	Emax [4]	Emax [5, 12]	Emax ([5]; read-out: MAX_MEAN)	Emax ([5]; read-out: MAX_MED)	Emax ([5]; read-out: tp (winning model))	Hit Call [5, 14]	DevTox ACC [5, 15]	HIT−CALL ([5]; tcpl plot AEID3094, COFF 20.3)	HIT−CALL ([6]; tcpl plot AEID3096, COFF 0.774)	MAX_MEAN [6, 16]	MAX_MED [6, 17]	Cell Count ACC ([4]; human, 48 h)	further results
CCCCOC(=O)c1ccc(O)cc1 [Butylparaben, 4−Hydroxybenzoic acid butyl ester]	8.67%	10.2%	0	4.14 Percent Activity	4.42 Percent Activity	91.8%	102%	101%	102%	102%	Positive	34.4685 µM	1					AC50 [2]: 115 µM; Emax [2]: 6.25%; Development Toxicant Classification [3]: Negative; Classification [3]: Non-Teratogen; DT Class. [3]: Neg; hit call designation (in words) [5, 11]: false positive; AC50 ([5]; read-out: ga (winning model)): 50.1 µM; Emax [5, 13]: 80 to 100%; DevTox-GLR Endo ACC ([5]; 48 h exposure): 34.47 µM
COC(=O)c1ccccc1C(=O)OC [Dimethyl Phthalate]	6.35%	7.43%	0	1.15 Percent Activity	0.556 Percent Activity	11.9%	6.7%	7.41%	6.7%		Negative	>200 µM	0	0	0.821 Percent Activity	0.835 Percent Activity		HIT−CALL [2]: 0; Cell Count ACC ([4]; Table S2, 48 h exposure): >200 µM
CC1=C(/C=C/C(C)=C/C=C/C(C)=C/CO)C(C)(C)CCC1 [Retinol]	1.1%	1.06%	0	23.5 Percent Activity	25.3 Percent Activity	97.3%	94.5%	94.3%	94.5%	117%	Positive	13.0451 µM	1				12.6287 µM	AC50 [2]: 46.8 µM; Emax [2]: 26%; Development Toxicant Classification [3]: Negative; Classification [3]: Non-Teratogen; DT Class. [3]: Neg; DevTox-GLR Endo CC ([4]; human, 48 h): 12.63 µM; hit call designation (in words) [5, 11]: false positive; AC50 [5, 18]: 33.9 µM; Emax [5, 13]: 80 to 100%; DevTox-GLR Endo ACC ([5]; 48 h exposure): 13.05 µM
NC(=O)c1ccc(-c2nc(-c3ccc4c(c3)OCO4)c(-c3ccccn3)[nH]2)cc1 [SB431542]																		effect on SOX2 and SOX17 expression (in words) ([5]; 1 µM positive control, 48 h endoderm induction): loss of both SOX2 and SOX17
CC(=O)Nc1ccc(O)cc1 [Acetaminophen]	11.3%	10.3%	0	0.992 Percent Activity	0.603 Percent Activity	13.1%	10.5%	11.3%	10.5%		Negative	>200 µM	0	0	0.829 Percent Activity	0.865 Percent Activity	>200 µM	effect on SOX17-positive cells (in words) ([5]; 48 h exposure during directed endoderm differentiation): no observed effect
OCCO [Ethylene Glycol]																		HIT−CALL [1]: 0; MAX_MEAN [1]: 15.9; MAX_MED [1]: 16.8; HIT−CALL [6]: 0; MAX_MEAN [6]: 0.895; MAX_MED [6]: 0.908; HIT−CALL [2]: 0; MAX_MEAN [2]: 1.02; MAX_MED [2]: 0.539; Cell Count % Max Inhibition [4]: 7.044%; Cell Count ACC [4]: >200 µM; DevTox % Max Inhibition [5]: 6.931%; DevTox ACC [5]: >200 µM; HIT−CALL [5]: 0; Hit Call [5]: Negative; MAX_MEAN [5]: 6.33; MAX_MED [5]: 6.93; hit call designation (in words) [5]: false negative; maximum observed effect level class (% max inhibition) [5]: weak (key: high (80–100% max inhibition); moderate (20–80% max inhibition); weak (0–20% max inhibition))
C=CC(N)=O [Acrylamide]			0	0.47 Percent Activity	0.417 Percent Activity						Negative	>200 µM	0	1	1.03 Percent Activity	1.06 Percent Activity		MAX_MEAN [1, 19]: 6.64 Percent Activity; MAX_MED [1, 20]: 7.31 Percent Activity; ga (winning model) [6]: −6.98; tp (winning model) [6]: 0.908; Cell Count % Max Inhibition [4, 21]: 16.9643%; DevTox % Max Inhibition [5, 22]: 9.423%; MAX_MEAN [5, 23]: 8.79 Percent Activity; MAX_MED [5, 24]: 9.42 Percent Activity
Oc1cc(O)c2c(c1)OC(c1ccc(O)c(O)c1)C(O)C2 (stereo not shown) [Cianidanol (Catechin)]																		Classification [3]: Non-Teratogen
O=C(O)c1cc(/N=N/c2ccc(S(=O)(=O)Nc3ccccn3)cc2)ccc1O [Sulfasalazine]	8.6%	8.79%	0	1.38 Percent Activity	0.57 Percent Activity	8.86%	11.8%	9.93%	11.8%		Negative	>200 µM	0	0	0.92 Percent Activity	0.948 Percent Activity	>200 µM	
Cc1ccc(NC(=O)c2ccc(CN3CCN(C)CC3)cc2)cc1Nc1nccc(-c2cccnc2)n1 [Imatinib]	7.83%	8.88%	0	6.74 Percent Activity	6.89 Percent Activity	97.8%	101%	101%	101%	101%	Positive		1				9.465 µM	AC50 [2]: 14.1 µM; Emax [2]: 6.56%
CC(=O)CC(c1ccccc1)c1c(O)c2ccccc2oc1=O (stereo not shown) [Warfarin]	11.3%	11.6%	0	0.566 Percent Activity	0.495 Percent Activity	19.1%	26.9%	26.8%	26.9%	26.8%	Positive	93.3273 µM	1	1	0.949 Percent Activity	0.975 Percent Activity		Cell Count ACC ([4]; Table S2, 48 h exposure): 197.749 µM; DevTox-GLR Endo CC ([4]; concentration at cell count cutoff, 48 h exposure): 197.75 µM; AC50 [5, 18]: 81.3 µM; DevTox-GLR Endo ACC ([5]; 48 h exposure): 93.33 µM
D-Camphor			0	0.902 Percent Activity	0.451 Percent Activity						Negative	>200 µM	0	1	0.906 Percent Activity	0.891 Percent Activity		MAX_MEAN [1, 19]: 7.36 Percent Activity; MAX_MED [1, 20]: 11.6 Percent Activity; ga (winning model) [6]: −7; tp (winning model) [6]: 0.81; HIT−CALL [2]: 0; Cell Count % Max Inhibition [4, 21]: 7.562%; DevTox % Max Inhibition [5, 22]: 9.33%; MAX_MEAN [5, 23]: 8.81 Percent Activity; MAX_MED [5, 24]: 9.33 Percent Activity
